Counter-ions that a name gives are not always drawn.
Assays:
[1] = test system: spontaneously hypertensive rats (SHR); assay: 4-week repeated oral administration antihypertensive test in spontaneously hypertensive rats (non-invasive tail-cuff CODA-6); assay type: in vivo, rat; conditions: 4 weeks; for Antihypertensive degree with consecutive 4-week administration of drugs, as compared to blood pressure prior to administration (Mean): n=8, F1 = Fimasartan potassium trihydrate 3 mg/kg, F2 = 10 mg/kg, L = Losartan potassium 10 mg/kg, V = Valsartan 10 mg/kg, A1 = Amlodipine besylate 0.5 mg/kg, A2 = 1.6 mg/kg
From the text: This study is intended to examine antihypertensive action of individual drugs. For this purpose, test drugs, i.e., Fimasartan potassium trihydrate, Losartan potassium salt, Valsartan, Amlodipine besylate, a combination of Fimasartan potassium trihydrate with Amlodipine besylate, a combination of Losartan potassium salt with Amlodipine besylate, and a combination of Valsartan with Amlodipine besylate were repeatedly and orally administered for 4 weeks to rats with essential hypertension. […] In this manner, the antihypertensive action was compared and evaluated between the individual drugs.
8-week old male spontaneously hypertensive rats (SHR), weighing 230 to 250 g, were purchased from Charles River Japan (CRJ). The animals were used in the test, after being subjected to an acclimation period until the animals were 18 to 19-week old (340 to 380 g) to reach a mean blood pressure of 160 to 170 mmHg. Animals with a good condition were selected by minute observation over the acclimation period prior to the test, and divided into individual test groups, each consisting of 8 animals (n=8). Only the selected animals, from which a rise in blood pressure was confirmed using a non-invasive blood pressure monitoring system (CODA-6), were assigned to the test group.
Low, medium and high doses of the drugs according to individual drugs were established in the preliminary test. […] All the doses referred to those used in the already performed test. Doses and drug-administered groups used in the final main test are as follows.
As an ARB compound, Losartan potassium salt, Valsartan and Fimasartan potassium trihydrate were respectively purchased and used from Zhejiang Huahai Pharmaceutical Co., Ltd. 10 mg/kg of Losartan potassium salt was taken as an L group, and 10 mg/kg of Valsartan was taken as a V group. With regard to Fimasartan potassium trihydrate, 3 mg/kg was taken as an F1 group, and 10 mg/kg was taken as an F2 group.
As a calcium channel blocker, Amlodipine besylate (home-made by the method described in U.S. Pat. No. 4,572,909) was used. 0.5 mg/kg of Amlodipine besylate was taken as an A 1 group, and a dose of 1.6 mg/kg was taken as an A2 group. The test materials and the comparative drugs were each suspended in 0.5% carboxymethylcellulose sodium salt (CMC—Na, Sigma) prior to using. As a control group, 0.5% CMC alone was administered.
{circumflex over (3)} Test Method • Administration: Upon carrying out the administration, the drug preparation was heated to a suitable temperature of 35° in a water bath, followed by forced oral administration of 5 mL/kg via a stomach sonde. • Measurement of blood pressure: Blood pressure of rats was measured as follows. Rats were restrained and placed in a heating device which was then heated to a temperature of about 40° (based on the temperature of 37° in a restraining cage) over 13 minutes, such that the tail blood vessels were engorged, and the blood pressure of rats was measured using CODA-6 equipment that monitors a blood pressure by means of the software of the main body through a pair of cuffs attached to the tail. The non-invasive blood pressure measuring method via CODA-6 (Kent Scientific Corporation) enables a long-term blood pressure measuring test that should involve repeated administration of test materials, which is not feasible with a direct blood pressure measuring method through arterial cannulation, such as conventionally used physiograph or power lab.
Changes in blood pressure were confirmed with focusing on changes in mean arterial pressure (MAP), and changes in diastolic and systolic blood pressure, heart rate, and body weight were used as references for other changes in the experimental results.

[2] = test system: patients with mild to moderate essential hypertension; conditions: Week 12 of drug administration, dose 60 mg to 120 mg; cited from earlier work

Row | SMILES | Antihypertensive degree with consecutive 4-week administration of drugs, as compared to blood pressure prior to administration (Mean) [1] [mmHg] | other results
1 | CCCCc1nc(Cl)c(CO)n1Cc1ccc(-c2ccccc2-c2nn[nH]n2)cc1 [Comparative Example 3, Losartan potassium salt] | −20 | –
2 | CCCCc1nc(C)c(CC(=S)N(C)C)c(=O)n1Cc1ccc(-c2ccccc2-c2nnn[nH]2)cc1 [Comparative Example 2, Fimasartan potassium trihydrate] | – | Antihypertensive degree with consecutive 4-week administration of drugs, as compared to blood pressure prior to administration (Mean) ([1]; potassium trihydrate): −50 mmHg
3 | CCOC(=O)C1=C(COCCN)NC(C)=C(C(=O)OC)C1c1ccccc1Cl (single isomer, unassigned) [Comparative Example 5, Amlodipine besylate] | −13 | –
4 | CCCCc1nc(Cl)c(CO)n1Cc1ccc(-c2ccccc2-c2nn[nH]n2)cc1 [Losartan] | – | Change in diastolic blood pressure (DBP) in the sitting position relative to baseline [2]: −8.56±7.72 mmHg
5 | CCOC(=O)C1=C(COCCN)NC(C)=C(C(=O)OC)C1c1ccccc1Cl (single isomer, unassigned) [Comparative Example 6, Amlodipine besylate] | −20 | –
6 | CCCCc1nc(C)c(CC(=S)N(C)C)c(=O)n1Cc1ccc(-c2ccccc2-c2nnn[nH]2)cc1 [Comparative Example 1, Fimasartan potassium trihydrate] | – | Antihypertensive effect compared to Comparative Example 3 and Comparative Example 4 ([1]; 3 mg/kg Fimasartan potassium trihydrate vs 10 mg/kg Losartan potassium or Valsartan): superior antihypertensive effect; Antihypertensive degree with consecutive 4-week administration of drugs, as compared to blood pressure prior to administration (Mean) ([1]; potassium trihydrate): −35 mmHg
7 | CCCCC(=O)N(Cc1ccc(-c2ccccc2-c2nnn[nH]2)cc1)[C@H](C(=O)O)C(C)C [Comparative Example 4, Valsartan] | −32 | –

— patent US8765776B2, “Antihypertensive pharmaceutical composition” (Boryung Pharmaceutical Co., Ltd., priority 2011, dated 2014)
